US9850283B2, “Macrocyclic inhibitors of the PD-1/PD-L1 and CD80(B7-1)/PD-L1 protein/protein interactions” (BRISTOL-MYERS SQUIBB COMPANY, priority 2013, dated 2017)
pIC50: −log10 of the molar value. Positions of bridges follow the written chain, without caps; N, C: chain ends. Non-standard residues stand in square brackets, D forms with d. Residues, ends and D or L forms follow the SMILES beside them. Bta = N[C@@H](Cc1csc2ccccc12)C(=O)O; Hyp = O=C(O)[C@@H]1C[C@@H](O)CN1; NMeNle = CCCC[C@H](NC)C(=O)O; NMeA = CN[C@@H](C)C(=O)O; Dap = NC[C@H](N)C(=O)O

Experiments:
Human PD-L1/PD-1 = biological target: T1, Human PD-L1/PD-1 (Homo sapiens, UniProt Q9NZQ7); assay: HTRF PD-1-Ig/PD-L1-His binding assay (human PD-L1); conditions: cluster symbol; read-out: HTRF IC50 cluster
T1 construct: made in house; host or cells: HEK293T
T1 sequence (Q9NZQ7 with tags, fused parts or gaps): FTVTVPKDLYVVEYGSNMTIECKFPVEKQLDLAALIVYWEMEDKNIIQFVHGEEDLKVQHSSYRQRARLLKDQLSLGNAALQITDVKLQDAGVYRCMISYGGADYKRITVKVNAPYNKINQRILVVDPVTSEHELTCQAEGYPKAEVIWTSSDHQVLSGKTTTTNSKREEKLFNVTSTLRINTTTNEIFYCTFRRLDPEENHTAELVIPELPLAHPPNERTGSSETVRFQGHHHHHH
In short: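 The time-resolved fluorescence signal comes from Eu-cryptate anti-Ig (1 nM) and APC anti-His (20 nM) antibodies bound to a PD-1-Ig/PD-L1-His complex. Both partners lack transmembrane regions.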

[1] = biological target: T2, LK35.2-hPD-L1 cells / PE-labeled PD-1-Ig (Homo sapiens, UniProt Q9NZQ7); assay: LK35.2-hPD-L1 cell binding high-content screening assay; assay type: cell-based; conditions: cluster symbol; cell line of CBA not given (LK35.2-hPD-L1 or 293T-hPD-L1); read-out: CBA IC50 cluster
T2 construct: expressed in transfected cells; host or cells: LK35.2 mouse B cell line
T2 sequence (Q9NZQ7 19-290): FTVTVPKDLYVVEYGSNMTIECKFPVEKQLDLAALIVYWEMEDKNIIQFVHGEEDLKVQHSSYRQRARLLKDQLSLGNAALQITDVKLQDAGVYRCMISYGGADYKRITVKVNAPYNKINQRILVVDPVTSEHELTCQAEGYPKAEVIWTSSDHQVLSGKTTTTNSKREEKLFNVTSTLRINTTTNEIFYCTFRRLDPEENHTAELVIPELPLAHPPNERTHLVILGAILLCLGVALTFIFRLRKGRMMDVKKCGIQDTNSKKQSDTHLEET
In short: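 Compound effect on PD-1/PD-L1 binding is measured by imaging cell-associated phycoerythrin signal. Human PD-1-Ig (PE on Ig tag, 1 nM final) is applied with compound to a murine B cell line overexpressing human PD-L1 for 1 h at 37 °C in serum-containing RPMI.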

Row | SMILES | pIC50 (Human PD-L1/PD-1) | pIC50 [1]
1 | CCCC[C@H]1C(=O)N(C)[C@@H](CCCC)C(=O)N[C@@H](CCCNC(=N)N)C(=O)N[C@H](C(=O)NCC(N)=O)CSCC(=O)N[C@@H](Cc2ccc(O)cc2)C(=O)N(C)[C@@H](C)C(=O)N[C@@H](CC(N)=O)C(=O)N2CCC[C@H]2C(=O)N[C@@H](Cc2cnc[nH]2)C(=O)N[C@@H](CCC(=O)O)C(=O)N2C[C@H](O)C[C@H]2C(=O)N[C@@H](Cc2c[nH]c3ccccc23)C(=O)N[C@@H](CO)C(=O)N[C@@H](Cc2c[nH]c3ccccc23)C(=O)N1C [Example 1159] ({CH2CO}-Y[NMeA]NPHE[Hyp]WSW[NMeNle][NMeNle]RCG-NH2; thioether N-14) | 7.52 to 8.17 | 8.33 to 9.80
2 | CCCC[C@H]1C(=O)N(C)[C@@H](CCCC)C(=O)N[C@@H](CN)C(=O)N[C@H](C(=O)NCC(N)=O)CSCC(=O)N[C@@H](Cc2ccc(O)cc2)C(=O)N(C)[C@@H](C)C(=O)N[C@@H](CC(N)=O)C(=O)N2CCC[C@H]2C(=O)N[C@@H](CN)C(=O)N[C@@H](CC(C)C)C(=O)N2C[C@H](O)C[C@H]2C(=O)N[C@@H](Cc2c[nH]c3ccccc23)C(=O)N[C@@H](CO)C(=O)N[C@@H](Cc2csc3ccccc23)C(=O)N1C [Example 1161] ({CH2CO}-Y[NMeA]NP[Dap]L[Hyp]WS[Bta][NMeNle][NMeNle][Dap]CG-NH2; thioether N-14) | 8.17 to 9.41 | 8.33 to 9.80
3 | CCCC[C@H]1C(=O)N(C)[C@@H](CCCC)C(=O)N[C@@H](CN)C(=O)N[C@H](C(=O)NCC(N)=O)CSCC(=O)N[C@@H](Cc2ccc(O)cc2)C(=O)N(C)[C@@H](C)C(=O)N[C@@H](CC(N)=O)C(=O)N2CCC[C@H]2C(=O)N[C@@H](CN)C(=O)N[C@@H](CCC(=O)O)C(=O)N2C[C@H](O)C[C@H]2C(=O)N[C@@H](Cc2c[nH]c3ccccc23)C(=O)N[C@@H](CO)C(=O)N[C@@H](Cc2csc3ccccc23)C(=O)N1C [Example 1162] ({CH2CO}-Y[NMeA]NP[Dap]E[Hyp]WS[Bta][NMeNle][NMeNle][Dap]CG-NH2; thioether N-14) | 8.17 to 9.41 | 8.33 to 9.80
4 | CCCC[C@H]1C(=O)N(C)[C@@H](CCCC)C(=O)N[C@@H](C)C(=O)N[C@H](C(=O)NCC(N)=O)CSCC(=O)N[C@@H](Cc2ccc(O)cc2)C(=O)N(C)[C@@H](C)C(=O)N[C@@H](CC(=O)O)C(=O)N2CCC[C@H]2C(=O)N[C@@H](Cc2cnc[nH]2)C(=O)N[C@@H](CC(C)C)C(=O)N2C[C@H](O)C[C@H]2C(=O)N[C@@H](Cc2c[nH]c3ccccc23)C(=O)N[C@@H](CO)C(=O)N[C@@H](Cc2c[nH]c3ccccc23)C(=O)N1C [Example 1165] | 8.17 to 9.41 | 8.33 to 9.80
5 | CCCC[C@H]1C(=O)N(C)[C@@H](CCCC)C(=O)N[C@@H](CCCNC(=N)N)C(=O)N[C@H](C(=O)NCC(N)=O)CSCC(=O)N[C@@H](Cc2ccc(O)cc2)C(=O)N(C)[C@@H](C)C(=O)N[C@@H](CCC(=O)O)C(=O)N2CCC[C@H]2C(=O)N[C@@H](Cc2cnc[nH]2)C(=O)N[C@@H](CC(C)C)C(=O)N2CCC[C@H]2C(=O)N[C@@H](Cc2c[nH]c3ccccc23)C(=O)N[C@@H](CO)C(=O)N[C@@H](Cc2c[nH]c3ccccc23)C(=O)N1C [Example 1167] ({CH2CO}-Y[NMeA]EPHLPWSW[NMeNle][NMeNle]RCG-NH2; thioether N-14) | 8.17 to 9.41 | 8.33 to 9.80
6 | CCCC[C@H]1C(=O)N(C)[C@@H](CCCC)C(=O)N[C@@H](C)C(=O)N[C@H](C(N)=O)CSCC(=O)N[C@@H](Cc2ccc(O)cc2)C(=O)N(C)[C@@H](C)C(=O)N[C@@H](CCC(=O)O)C(=O)N2CCC[C@H]2C(=O)N[C@@H](CN)C(=O)N[C@@H](CC(C)C)C(=O)N2C[C@H](O)C[C@H]2C(=O)N[C@@H](Cc2c[nH]c3ccccc23)C(=O)N[C@@H](CO)C(=O)N[C@@H](Cc2c[nH]c3ccccc23)C(=O)N1C [Example 1172] ({CH2CO}-Y[NMeA]EP[Dap]L[Hyp]WSW[NMeNle][NMeNle]AC-NH2; thioether N-14) | 8.17 to 9.41 | 7.14 to 8.32
7 | CCCC[C@H]1C(=O)N(C)[C@@H](CCCC)C(=O)N[C@@H](CCCN)C(=O)N[C@H](C(=O)NCC(N)=O)CSCC(=O)N[C@@H](Cc2ccc(O)cc2)C(=O)N2CC(F)(F)C[C@H]2C(=O)N[C@@H](CC(N)=O)C(=O)N2CCC[C@H]2C(=O)N[C@@H](Cc2cnc[nH]2)C(=O)N[C@@H](CC(C)C)C(=O)N2C[C@H](O)C[C@H]2C(=O)N[C@@H](Cc2c[nH]c3ccccc23)C(=O)N[C@@H](CO)C(=O)N[C@@H](Cc2c[nH]c3ccccc23)C(=O)N1C [Example 1174] | 8.17 to 9.41 | 8.33 to 9.80
8 | CCCC[C@H]1C(=O)N(C)[C@@H](CCCC)C(=O)N[C@@H](CCCN)C(=O)N[C@H](C(=O)NCC(N)=O)CSCC(=O)N[C@@H](Cc2ccc(O)cc2)C(=O)N2CC[C@H]2C(=O)N[C@@H](CC(N)=O)C(=O)N2CCC[C@H]2C(=O)N[C@@H](Cc2cnc[nH]2)C(=O)N[C@@H](CC(C)C)C(=O)N2C[C@H](O)C[C@H]2C(=O)N[C@@H](Cc2c[nH]c3ccccc23)C(=O)N[C@@H](CO)C(=O)N[C@@H](Cc2c[nH]c3ccccc23)C(=O)N1C [Example 1176] | 7.52 to 8.17 | 7.14 to 8.32

Results, then the molecule that gave them:

Row | pIC50 (Human PD-L1/PD-1) | pIC50 [1] | SMILES
9 | 7.52 to 8.17 | 7.14 to 8.32 | CCCC[C@H]1C(=O)N(C)[C@@H](CCCC)C(=O)N[C@@H](C)C(=O)N[C@H](C(=O)NCC(N)=O)CSCC(=O)N[C@@H](Cc2ccc(O)cc2)C(=O)N(C)[C@@H](C)C(=O)N[C@@H](CCC(=O)O)C(=O)N2CCC[C@H]2C(=O)N[C@@H](Cc2cnc[nH]2)C(=O)N[C@@H](CC(C)C)C(=O)N2CCC[C@H]2C(=O)N[C@@H](Cc2c[nH]c3ccccc23)C(=O)N[C@@H](CO)C(=O)N[C@@H](Cc2c[nH]c3ccccc23)C(=O)N1C [Example 1164] ({CH2CO}-Y[NMeA]EPHLPWSW[NMeNle][NMeNle]ACG-NH2; thioether N-14)
10 | 8.17 to 9.41 | 8.33 to 9.80 | CCCC[C@H]1C(=O)N(C)[C@@H](CCCC)C(=O)N[C@@H](CCCNC(=N)N)C(=O)N[C@H](C(=O)NCC(N)=O)CSCC(=O)N[C@@H](Cc2ccc(O)cc2)C(=O)N(C)[C@@H](C)C(=O)N[C@@H](CC(=O)O)C(=O)N2CCC[C@H]2C(=O)N[C@@H](Cc2cnc[nH]2)C(=O)N[C@@H](CC(C)C)C(=O)N2C[C@H](O)C[C@H]2C(=O)N[C@@H](Cc2c[nH]c3ccccc23)C(=O)N[C@@H](CO)C(=O)N[C@@H](Cc2c[nH]c3ccccc23)C(=O)N1C [Example 1166] ({CH2CO}-Y[NMeA]DPHL[Hyp]WSW[NMeNle][NMeNle]RCG-NH2; thioether N-14)
11 | 8.17 to 9.41 | 8.33 to 9.80 | CCCC[C@H]1C(=O)N(C)[C@@H](CCCC)C(=O)N[C@@H](C)C(=O)N[C@H](C(=O)NCC(N)=O)CSCC(=O)N[C@@H](Cc2ccc(O)cc2)C(=O)N(C)[C@@H](C)C(=O)N[C@@H](CC(N)=O)C(=O)N2CCC[C@H]2C(=O)N[C@@H](Cc2cnc[nH]2)C(=O)N[C@@H](CCC(=O)O)C(=O)N2C[C@H](O)C[C@H]2C(=O)N[C@@H](Cc2c[nH]c3ccccc23)C(=O)N[C@@H](CO)C(=O)N[C@@H](Cc2c[nH]c3ccccc23)C(=O)N1C [Example 1168]
12 | 7.52 to 8.17 | 7.14 to 8.32 | CCCC[C@H]1C(=O)N(C)[C@@H](CCCC)C(=O)N[C@@H](C)C(=O)N[C@H](C(=O)NCC(N)=O)CSCC(=O)N[C@@H](Cc2ccc(O)cc2)C(=O)N(C)[C@@H](C)C(=O)N[C@@H](CCC(=O)O)C(=O)N2CCC[C@H]2C(=O)N[C@@H](Cc2cnc[nH]2)C(=O)N[C@@H](CC(C)C)C(=O)N2C[C@H](O)C[C@H]2C(=O)N[C@@H](Cc2c[nH]c3ccccc23)C(=O)N[C@@H](CO)C(=O)N[C@@H](Cc2c[nH]c3ccccc23)C(=O)N1C [Example 1169]
13 | 8.17 to 9.41 | 7.14 to 8.32 | CCCC[C@H]1C(=O)N(C)[C@@H](CCCC)C(=O)N[C@@H](C)C(=O)N[C@H](C(=O)NCC(N)=O)CSCC(=O)N[C@@H](Cc2ccc(O)cc2)C(=O)N(C)[C@@H](C)C(=O)N[C@@H](CC(N)=O)C(=O)N2CCC[C@H]2C(=O)N[C@@H](CN)C(=O)N[C@@H](CC(=O)O)C(=O)N2C[C@H](O)C[C@H]2C(=O)N[C@@H](Cc2c[nH]c3ccccc23)C(=O)N[C@@H](CO)C(=O)N[C@@H](Cc2c[nH]c3ccccc23)C(=O)N1C [Example 1170] ({CH2CO}-Y[NMeA]NP[Dap]D[Hyp]WSW[NMeNle][NMeNle]ACG-NH2; thioether N-14)
14 | 8.17 to 9.41 | 8.33 to 9.80 | CCCC[C@H]1C(=O)N(C)[C@@H](CCCC)C(=O)N[C@@H](C)C(=O)N[C@H](C(=O)NCC(N)=O)CSCC(=O)N[C@@H](Cc2ccc(O)cc2)C(=O)N(C)[C@@H](C)C(=O)N[C@@H](CC(N)=O)C(=O)N2CCC[C@H]2C(=O)N[C@@H](CN)C(=O)N[C@@H](CCC(=O)O)C(=O)N2C[C@H](O)C[C@H]2C(=O)N[C@@H](Cc2c[nH]c3ccccc23)C(=O)N[C@@H](CO)C(=O)N[C@@H](Cc2c[nH]c3ccccc23)C(=O)N1C [Example 1171] ({CH2CO}-Y[NMeA]NP[Dap]E[Hyp]WSW[NMeNle][NMeNle]ACG-NH2; thioether N-14)
15 | 8.17 to 9.41 | 7.14 to 8.32 | CCCC[C@H]1C(=O)N(C)[C@@H](CCCC)C(=O)N[C@@H](CCCNC(=N)N)C(=O)N[C@H](C(=O)NCC(N)=O)CSCC(=O)N[C@@H](Cc2ccc(O)cc2)C(=O)N(C)[C@@H](C)C(=O)N[C@@H](CCC(=O)O)C(=O)N2CCC[C@H]2C(=O)N[C@@H](Cc2cnc[nH]2)C(=O)N[C@@H](CC(C)C)C(=O)N2C[C@H](O)C[C@H]2C(=O)N[C@@H](Cc2c[nH]c3ccccc23)C(=O)N[C@@H](CO)C(=O)N[C@@H](Cc2c[nH]c3ccccc23)C(=O)N1C [Example 1175] ({CH2CO}-Y[NMeA]EPHL[Hyp]WSW[NMeNle][NMeNle]RCG-NH2; thioether N-14)
